As a reminder, the IC50 is the concentration needed to halve the response being measured. Read a high IC50 as weaker potency in that assay.

The structures appear in SMILES notation.

These results are taken from US20100160304A1, “AROMATIC SULFONE COMPOUND AS ALDOSTERONE RECEPTOR MODULATOR” (Dainippon Sumitomo Pharma Co., Ltd, priority 2005, published 2010).

This assay concerns the target T1, aldosterone receptor MR (Rattus norvegicus, UniProt P22199).
T1 construct: the resultant supernatant was being a soluble fraction of the kidney; from tissue; host or cells: kidney of adrenalectomized rat, 105,000 G supernatant (soluble fraction)
T1 sequence (P22199 1-981): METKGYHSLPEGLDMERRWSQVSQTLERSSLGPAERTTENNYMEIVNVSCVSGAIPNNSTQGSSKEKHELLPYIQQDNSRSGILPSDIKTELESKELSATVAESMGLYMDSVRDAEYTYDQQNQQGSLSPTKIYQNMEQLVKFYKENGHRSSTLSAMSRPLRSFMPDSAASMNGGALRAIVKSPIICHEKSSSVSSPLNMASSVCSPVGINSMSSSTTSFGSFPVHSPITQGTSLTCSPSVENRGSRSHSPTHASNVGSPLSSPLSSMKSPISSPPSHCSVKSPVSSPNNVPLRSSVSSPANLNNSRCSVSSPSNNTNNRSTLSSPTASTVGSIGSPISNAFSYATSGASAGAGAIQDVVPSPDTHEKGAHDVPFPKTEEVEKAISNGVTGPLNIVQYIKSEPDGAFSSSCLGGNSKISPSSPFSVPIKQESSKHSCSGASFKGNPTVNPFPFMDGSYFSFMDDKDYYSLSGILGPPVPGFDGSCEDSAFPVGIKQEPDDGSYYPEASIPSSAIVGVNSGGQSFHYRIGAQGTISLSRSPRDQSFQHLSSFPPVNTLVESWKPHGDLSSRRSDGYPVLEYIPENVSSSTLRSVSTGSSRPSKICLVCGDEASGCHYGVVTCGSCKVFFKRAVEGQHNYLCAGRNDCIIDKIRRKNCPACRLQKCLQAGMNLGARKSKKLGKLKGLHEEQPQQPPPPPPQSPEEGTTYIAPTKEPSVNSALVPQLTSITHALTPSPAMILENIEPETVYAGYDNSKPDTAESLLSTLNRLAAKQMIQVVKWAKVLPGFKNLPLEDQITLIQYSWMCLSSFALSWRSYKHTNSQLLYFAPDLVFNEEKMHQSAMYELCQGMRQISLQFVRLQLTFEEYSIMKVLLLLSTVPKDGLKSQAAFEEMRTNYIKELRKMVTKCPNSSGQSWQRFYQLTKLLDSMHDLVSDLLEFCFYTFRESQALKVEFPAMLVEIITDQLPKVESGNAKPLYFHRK
The experiment in a line: Aldosterone receptor binding assay ([3H]aldosterone, soluble fraction of rat kidney). Conditions: [3H]aldosterone 2 nM, 2 μM RU-486, 4° C. about 18 hours. As for the experimental part:
Flank incision (both sides) was subjected to a rat to adrenalectomize. After suturing the rat's incised parts, the rat was again returned to a breeding cage and bred for a duration of 3 to 5 days to collect a kidney from the rat; the collected kidney was homogenized with 0.1 M Tris-HCl, 0.25M sucrose, 0.1M Na2MoO4, 2 mM DTT buffer solution (pH 7.4), the resultant solution was subjected to centrifugal separation at 105,000 G for 30 minutes, and the resultant supernatant was being a soluble fraction of the kidney.
Thereafter, the reactant solution was added with 50 μL of 5% dextran coated charcoal and mixed, and then centrifugated at 3,000 G for 5 minutes. Subsequently, 100 μL of the supernatant was collected and mixed with 3.5 mL of liquid scintillator ACS-II (Amersham) to measure a radioactivity with a liquid scintillation counter (manufactured by Packard, Tri Carb 2700TR). A non-specific binding was determined by adding 2 μM of aldosterone to the reactant solution.
Binding inhibiting rate (%)=10−[(B−N)/(B0−N)]×100
B: Binding amount of the marker ligand in the co-presence of the tested substance and marker ligand,
B0: Binding amount of the marker ligand in the absence of the tested substance, and
N: Binding amount of the marker ligand in the presence of excess aldosterone (2 μM).
For `CC1=CC(C)(C)Nc2ccc(NS(=O)(=O)c3cccc(F)c3)cc21` [Example 68, 3-Fluoro-N-(2,2,4-trimethyl-1,2-dihydroquinolin-6-yl)benzenesulfonamide], the half-maximal inhibitory concentration (IC50) is 1500 nM. For the compound `C#CC1(C)OC(=S)Nc2ccc(NS(=O)(=O)c3cccs3)cc21` (stereo not shown) [Example 48, N-(4-Ethynyl-4-methyl-2-thioxo-1,4-dihydro-2H-3,1-benzoxazin-6-yl)thiophene-2-sulfonamide], the IC50 is 320 nM. Turning to `CC1(C)OC(=S)Nc2ccc(OS(=O)(=O)c3ccc4ccccc4c3)cc21` [Example 14, 4,4-Dimethyl-2-thioxo-1,4-dihydro-2H-3,1-benzoxazin-6-yl naphthalene-2-sulfonate], the IC50 amounted to 470 nM. With `CC1=CC(C)(C)Nc2cc(F)c(OS(=O)(=O)c3ccc(C)cc3)cc21` [Example 54, 7-Fluoro-2,2,4-trimethyl-1,2-dihydroquinolin-6-yl 4-methylbenzenesulfonate] the figure was 200 nM; with `CC(=O)N(c1ccc2c(c1)C(C)CC(C)(C)N2)S(=O)(=O)c1ccc(C)cc1` (stereo not shown) [Example 101, N-[(4-Methylphenyl)sulfonyl]-N-(2,2,4-trimethyl-1,2,3,4-tetrahydroquinolin-6-yl)acetamide], 190 nM; with `CC(=O)N(c1ccc2c(c1)C(C)=CC(C)(C)N2)S(=O)(=O)c1ccccc1` [Example 87, N-(Phenylsulfonyl)-N-(2,2,4-trimethyl-1,2-dihydroquinolin-6-yl)acetamide], 500 nM. The value for `Cc1ccc(S(=O)(=O)N(C)c2ccc3c(c2)C(C)CC(C)(C)N3)cc1` (stereo not shown) [Example 100, N,4-Dimethyl-N-(2,2,4-trimethyl-1,2,3,4-tetrahydroquinolin-6-yl)benzenesulfonamide] was 2100 nM; that for `Cc1ccc(S(=O)(=O)Oc2ccc(NS(C)(=O)=O)cc2C)cc1` [Example 109, 2-Methyl-4-[(methylsulfonyl)amino]phenyl 4-methylbenzenesulfonate] was 16000 nM.

`Cc1ccc(S(=O)(=O)Oc2ccc(NS(C)(=O)=O)cc2)cc1` [Example 105, 4-[(Methylsulfonyl)amino]phenyl 4-methylbenzenesulfonate] returned an IC50 of 6600 nM. On to `Cc1ccc(S(=O)(=O)Oc2ccc3c(c2)C(C)(C)OC(=S)N3)cc1` [Example 2, 4,4-Dimethyl-2-thioxo-1,4-dihydro-2H-3,1-benzoxazin-6-yl 4-methylbenzenesulfonate], for which the IC50 was 320 nM.

Take `COC(=O)C(=O)N(c1ccc2c(c1)C(C)=CC(C)(C)N2)S(=O)(=O)c1cccs1` [Example 91, Methyl Oxo[(2-thienylsulfonyl)-(2,2,4-trimethyl-1,2-dihydroquinolin-6-yl)amino]acetate]: the IC50 is 100 nM. In turn, `C=CC1(C)OC(=O)Nc2ccc(NS(=O)(=O)c3cccs3)cc21` (stereo not shown) [Example 49, N-(4-Methyl-2-oxo-4-vinyl-1,4-dihydro-2H-3,1-benzoxazin-6-yl)thiophene-2-sulfonamide] came in with an IC50 of 2700 nM. Compound `CC1(C)OC(=S)Nc2ncc(CS(=O)(=O)c3cccs3)cc21` [Example 37, 4,4-Dimethyl-6-[(2-thienylsulfonyl)methyl]-1,4-dihydro-2H-pyrido[2,3-d][1,3]oxazin-2-thione] registered an IC50 of 960 nM. The value for `CC1=CC(C)(C)Nc2ccc(NS(=O)(=O)c3ccsc3)cc21` [Example 74, N-(2,2,4-Trimethyl-1,2-dihydroquinolin-6-yl)thiophene-3-sulfonamide] was 120 nM; that for `CC1(C)OC(=S)Nc2ncc(NS(=O)(=O)c3cccs3)cc21` [Example 41, N-(4,4-Dimethyl-2-thioxo-1,4-dihydro-2H-pyrido[2,3-d][1,3]oxazin-6-yl)thiophene-2-sulfonamide] was 5500 nM; that for `CC1=CC(C)(C)Nc2ccc(N(C)S(=O)(=O)c3ccc(C)cc3)cc21` [Example 81, N,4-Dimethyl-N-(2,2,4-trimethyl-1,2-dihydroquinolin-6-yl)benzenesulfonamide] was 500 nM. With `CC1=CC(C)(C)Nc2ccc(NS(=O)(=O)c3ccc(F)cc3)cc21` [Example 69, 4-Fluoro-N-(2,2,4-trimethyl-1,2-dihydroquinolin-6-yl)benzenesulfonamide] the figure was 1200 nM; with `CC1=CC(C)(C)Nc2ccc(CS(=O)(=O)c3ccc(C)cc3)cc21` [Example 57, 2,2,4-Trimethyl-6-{[(4-methylphenyl)sulfonyl]methy}-1,2-dihydroquinoline], 29 nM; with `CC1=CC(C)(C)Nc2ccc(NS(=O)(=O)c3ccccc3)cc21` [Example 63, N-(2,2,4-Trimethyl-1,2-dihydroquinolin-6-yl)benzenesulfonamide], 360 nM.

`CC1(C)OC(=S)Nc2ccc(NS(=O)(=O)c3ccsc3)cc21` [Example 28, N-(4,4-Dimethyl-2-thioxo-1,4-dihydro-2H-3,1-benzoxazin-6-yl)thiophene-3-sulfonamide]: the IC50 came to 13 nM. Turning to `CC1(C)OC(=S)Nc2ccc(OS(=O)(=O)c3cccs3)cc21` [Example 12, 4,4-Dimethyl-2-thioxo-1,4-dihydro-2H-3,1-benzoxazin-6-yl thiophene-2-sulfonate], the IC50 was determined as 83 nM. The value for `CC1=CC(C)(C)Nc2ccc(NS(=O)(=O)c3cc4ccccc4s3)cc21` [Example 75, N-(2,2,4-Trimethyl-1,2-dihydroquinolin-6-yl)-1-benzothiophene-2-sulfonamide] was 390 nM. The value for `CC1(C)OC(=S)Nc2ncc(CS(=O)(=O)c3cccnc3)cc21` [Example 38, 4,4-Dimethyl-6-[(pyridine-3-ylsulfonyl)methyl]-1,4-dihydro-2H-pyrido[2,3-d][1,3]oxazin-2-thione] was 6600 nM; that for `CC(=O)N(c1ccc2c(c1)C(C)(C)OC(=S)N2)S(=O)(=O)c1cccs1` [Example 26, N-(4,4-Dimethyl-2-thioxo-1,4-dihydro-2H-3,1-benzoxazin-6-yl)-N-(2-thienylsulfonyl)acetamide] was 15 nM; that for `CC1(C)OC(=S)Nc2ccc(CS(=O)(=O)c3ccccc3)cc21` [Example 18, 4,4-Dimethyl-6-[(phenylsulfonyl)methyl]-1,4-dihydro-2H-3,1-benzoxazin-2-thione] was 39 nM.

`Cc1ccc(S(=O)(=O)Cc2cnc3c(c2)C(C)(C)OC(=S)N3)cc1` [Example 36, 4,4-Dimethyl-6-{[(4-methylphenyl)sulfonyl]methyl}-1,4-dihydro-2H-pyrido[2,3-d][1,3]oxazin-2-thione] registered an IC50 of 1300 nM. In the case of `Cc1ccc(S(=O)(=O)Cc2ccc3c(c2)C(C)CC(C)(C)N3)cc1` (stereo not shown) [Example 96, 2,2,4-Trimethyl-6-{[(4-methylphenyl)sulfonyl]methyl}-1,2,3,4-tetrahydroquinoline], the IC50 was found to be 500 nM.

As to `CC1=CC(C)(C)Nc2cc(C)c(NS(=O)(=O)c3ccc(C)cc3)cc21` [Example 80, 4-Methyl-N-(2,2,4,7-tetramethyl-1,2-dihydroquinolin-6-yl)benzenesulfonamide], the 50% inhibitory concentration (IC50) is 1300 nM. The value for `C=CC1(C)OC(=S)Nc2ccc(NS(=O)(=O)c3cccs3)cc21` (stereo not shown) [Example 50, N-(4-Methyl-2-thioxo-4-vinyl-1,4-dihydro-2H-3,1-benzoxazin-6-yl)thiophene-2-sulfonamide] was 11 nM; that for `CC1CC(C)(C)Nc2ccc(NS(=O)(=O)c3cccs3)cc21` (stereo not shown) [Example 98, N-(2,2,4-Trimethyl-1,2,3,4-tetrahydroquinolin-6-yl)thiophene-2-sulfonamide] was 94 nM; that for `Cc1ccc(S(=O)(=O)Cc2ccc(NS(C)(=O)=O)cc2)cc1` [Example 112, N-(4-{[(4-Methylphenyl)sulfonyl]methyl}phenyl)methanesulfonamide] was 5400 nM.
